Test results published in PubChem BioAssay AID248 (DTP/NCI, 2004).
Values joined by “and” are separate entries in the source; they are usually repeats but may differ in a detail not shown here. Equal values may be shown once. Toxic doses and inconclusive results are not listed.

Test system: L1210 leukemia ip in BDF1 mice, survival T/C
Assay: NCI In Vivo Anticancer Drug Screen. Data for tumor model L1210 Leukemia (intraperitoneal) in B6D2F1 (BDF1) mice
Details: higher = longer survival
Method in brief: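 Tumor was transplanted into mice, which were then dosed with test compound or vehicle alone. Survival was recorded for each group, and the treated figure was expressed relative to the control figure.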

[1] = endpoint: mean survival time, dose: 100.0 mg/kg/injection, schedule: Q04DX003 (ip), vehicle: saline with Tween-80
[2] = endpoint: mean survival time, dose: 100.0 mg/kg/injection, schedule: Q04DX002 (ip), vehicle: gum acacia
[3] = endpoint: mean survival time, dose: 200.0 mg/kg/injection, schedule: Q04DX002 (ip), vehicle: gum acacia
[4] = endpoint: mean survival time, dose: 100.0 mg/kg/injection, schedule: Q04DX003 (ip), vehicle: Klucel (hydroxypropylcellulose) (HPC)
[5] = endpoint: mean survival time, dose: 200.0 mg/kg/injection, schedule: Q04DX003 (ip), vehicle: Klucel (hydroxypropylcellulose) (HPC)
[6] = endpoint: mean survival time, dose: 400.0 mg/kg/injection, schedule: Q04DX003 (ip), vehicle: Klucel (hydroxypropylcellulose) (HPC)
[7] = endpoint: mean survival time, dose: 100.0 mg/kg/injection, schedule: Q04DX002 (ip), vehicle: saline
[8] = endpoint: mean survival time, dose: 200.0 mg/kg/injection, schedule: Q04DX002 (ip), vehicle: saline
[9] = endpoint: mean survival time, dose: 400.0 mg/kg/injection, schedule: Q04DX002 (ip), vehicle: saline

## C/C(=N/N=C(N)N)c1ccc(NC(=O)Nc2ccc(/C(C)=N/N=C(N)N)cc2)cc1
endpoint: mean survival time, dose: 8.0 mg/kg/injection, schedule: Q03HX016 (ip), vehicle: other
  T/C: 159 % of control
endpoint: mean survival time, dose: 16.0 mg/kg/injection, schedule: Q01DX005 (ip), vehicle: other
  T/C: 179 % of control
endpoint: mean survival time, dose: 16.0 mg/kg/injection, schedule: Q01DX009 (ip), vehicle: other
  T/C: 236 % of control
endpoint: mean survival time, dose: 20.0 mg/kg/injection, schedule: Q01DX005 (ip), vehicle: saline
  T/C: 121 % of control
endpoint: mean survival time, dose: 32.0 mg/kg/injection, schedule: Q01DX005 (ip), vehicle: other
  T/C: 213 % of control
endpoint: mean survival time, dose: 32.0 mg/kg/injection, schedule: Q01DX009 (ip), vehicle: other
  T/C: 239 % of control
endpoint: mean survival time, dose: 32.0 mg/kg/injection, schedule: Q01DX009 (ip), vehicle: water
  T/C: 154 % of control and 205 % of control
endpoint: mean survival time, dose: 40.0 mg/kg/injection, schedule: Q01DX005 (ip), vehicle: saline
  T/C: 159 % of control
endpoint: mean survival time, dose: 53.0 mg/kg/injection, schedule: Q01DX009 (ip), vehicle: water
  T/C: 218 % of control and 255 % of control
endpoint: mean survival time, dose: 64.0 mg/kg/injection, schedule: Q01DX001 (ip), vehicle: other
  T/C: 116 % of control
endpoint: mean survival time, dose: 64.0 mg/kg/injection, schedule: Q01DX001 (oral), vehicle: other
  T/C: 111 % of control
endpoint: mean survival time, dose: 64.0 mg/kg/injection, schedule: Q01DX009 (oral), vehicle: other
  T/C: 111 % of control
endpoint: mean survival time, dose: 64.0 mg/kg/injection, schedule: Q04DX003 (ip), vehicle: other
  T/C: 159 % of control
endpoint: mean survival time, dose: 64.0 mg/kg/injection, schedule: Q08DX002 (ip), vehicle: other
  T/C: 122 % of control
endpoint: mean survival time, dose: 80.0 mg/kg/injection, schedule: Q01DX005 (ip), vehicle: saline
  T/C: 206 % of control
endpoint: mean survival time, dose: 88.0 mg/kg/injection, schedule: Q01DX009 (ip), vehicle: water
  T/C: 223 % of control and 251 % of control
endpoint: mean survival time, dose: 128.0 mg/kg/injection, schedule: Q01DX001 (oral), vehicle: other
  T/C: 101 % of control
endpoint: mean survival time, dose: 128.0 mg/kg/injection, schedule: Q01DX009 (oral), vehicle: other
  T/C: 106 % of control
endpoint: mean survival time, dose: 147.0 mg/kg/injection, schedule: Q01DX009 (ip), vehicle: water
  T/C: 323 % of control
endpoint: mean survival time, dose: 160.0 mg/kg/injection, schedule: Q01DX005 (ip), vehicle: saline
  T/C: 197 % of control
endpoint: mean survival time, dose: 245.0 mg/kg/injection, schedule: Q01DX009 (ip), vehicle: water
  T/C: 227 % of control
endpoint: mean survival time, dose: 256.0 mg/kg/injection, schedule: Q01DX001 (oral), vehicle: other
  T/C: 101 % of control
endpoint: mean survival time, dose: 256.0 mg/kg/injection, schedule: Q01DX009 (oral), vehicle: other
  T/C: 108 % of control
endpoint: mean survival time, dose: 320.0 mg/kg/injection, schedule: Q01DX005 (ip), vehicle: saline
  T/C: 173 % of control
endpoint: mean survival time, dose: 512.0 mg/kg/injection, schedule: Q01DX001 (oral), vehicle: other
  T/C: 96 % of control
endpoint: mean survival time, dose: 512.0 mg/kg/injection, schedule: Q01DX009 (oral), vehicle: other
  T/C: 108 % of control
endpoint: mean survival time, dose: 1024.0 mg/kg/injection, schedule: Q01DX001 (oral), vehicle: other
  T/C: 97 % of control
endpoint: mean survival time, dose: 1024.0 mg/kg/injection, schedule: Q01DX009 (oral), vehicle: other
  T/C: 109 % of control
endpoint: median survival time, dose: 5.0 mg/kg/injection, schedule: Q03HX024 (ip), vehicle: water
  T/C: 152 % of control
endpoint: median survival time, dose: 15.0 mg/kg/injection, schedule: Q03HX024 (ip), vehicle: water
  T/C: 302 % of control
endpoint: median survival time, dose: 30.0 mg/kg/injection, schedule: Q03HX024 (ip), vehicle: water
  T/C: 34 % of control
endpoint: median survival time, dose: 45.0 mg/kg/injection, schedule: Q03HX024 (ip), vehicle: water
  T/C: 31 % of control

## CCCCCCCCP(=O)(CCCC)CCCC
[1]
  T/C: 96 % of control
endpoint: mean survival time, dose: 200.0 mg/kg/injection, schedule: Q04DX003 (ip), vehicle: saline with Tween-80
  T/C: 107 % of control

## CC(C)c1ccc(NC(=S)NC(=O)c2ccccc2)cc1
[2]
  T/C: 103 % of control
[3]
  T/C: 100 % of control
endpoint: mean survival time, dose: 400.0 mg/kg/injection, schedule: Q04DX002 (ip), vehicle: gum acacia
  T/C: 92 % of control

## COc1cc2c(cc1OC)C13CCN4CC5=CCOC6CC(=O)N2C1C6C5CC43 (stereo not drawn)
endpoint: mean survival time, dose: 9.5 mg/kg/injection, schedule: Q01DX001 (ip), vehicle: other
  T/C: 103 % of control
endpoint: mean survival time, dose: 19.0 mg/kg/injection, schedule: Q01DX001 (ip), vehicle: other
  T/C: 103 % of control
endpoint: mean survival time, dose: 25.0 mg/kg/injection, schedule: Q01DX015 (ip), vehicle: saline
  T/C: 101 % of control
endpoint: mean survival time, dose: 38.0 mg/kg/injection, schedule: Q01DX001 (ip), vehicle: other
  T/C: 97 % of control
endpoint: mean survival time, dose: 50.0 mg/kg/injection, schedule: Q01DX015 (ip), vehicle: saline
  T/C: 100 % of control
endpoint: mean survival time, dose: 100.0 mg/kg/injection, schedule: Q01DX015 (ip), vehicle: saline
  T/C: 91 % of control

## S=c1[nH]c2ccc(Cl)cc2[nH]1
endpoint: mean survival time, dose: 25.0 mg/kg/injection, schedule: Q04DX003 (ip), vehicle: saline with Tween-80
  T/C: 100 % of control
endpoint: mean survival time, dose: 50.0 mg/kg/injection, schedule: Q04DX003 (ip), vehicle: saline with Tween-80
  T/C: 98 % of control
[1]
  T/C: 100 % of control

## S=c1cccc[nH]1.[Pb]
[2]
  T/C: 103 % of control
[3]
  T/C: 100 % of control

## CC(=O)C12OC(C)(C)OC1CC1C3CCC4=CC(=O)C=CC4(C)C3(F)C(O)CC12C (stereo not drawn)
endpoint: mean survival time, dose: 12.5 mg/kg/injection, schedule: Q04DX002 (ip), vehicle: Klucel (hydroxypropylcellulose) (HPC)
  T/C: 104 % of control
endpoint: mean survival time, dose: 25.0 mg/kg/injection, schedule: Q04DX002 (ip), vehicle: Klucel (hydroxypropylcellulose) (HPC)
  T/C: 107 % of control
endpoint: mean survival time, dose: 50.0 mg/kg/injection, schedule: Q04DX002 (ip), vehicle: Klucel (hydroxypropylcellulose) (HPC)
  T/C: 107 % of control

## CCCCCNC(=O)CC(O)C(=O)NCCCCC (stereo not drawn)
endpoint: mean survival time, dose: 100.0 mg/kg/injection, schedule: Q01DX001 (ip), vehicle: other
  T/C: 87 % of control
endpoint: mean survival time, dose: 200.0 mg/kg/injection, schedule: Q01DX001 (ip), vehicle: other
  T/C: 98 % of control
endpoint: mean survival time, dose: 400.0 mg/kg/injection, schedule: Q01DX001 (ip), vehicle: other
  T/C: 96 % of control

## [N-]=C(CC(=O)c1ccccc1)c1ccccc1.[N-]=C(CC(=O)c1ccccc1)c1ccccc1.[Ni+2]
endpoint: mean survival time, dose: 12.5 mg/kg/injection, schedule: Q04DX003 (ip), vehicle: Klucel (hydroxypropylcellulose) (HPC)
  T/C: 90 % of control
endpoint: mean survival time, dose: 25.0 mg/kg/injection, schedule: Q04DX003 (ip), vehicle: Klucel (hydroxypropylcellulose) (HPC)
  T/C: 93 % of control
endpoint: mean survival time, dose: 50.0 mg/kg/injection, schedule: Q04DX003 (ip), vehicle: Klucel (hydroxypropylcellulose) (HPC)
  T/C: 91 % of control
[4]
  T/C: 90 % of control
[5]
  T/C: 93 % of control
[6]
  T/C: 90 % of control

## O=S(=O)(C1CC1c1ccccc1)N(c1ccccc1)c1ccccc1 (stereo not drawn)
endpoint: mean survival time, dose: 100.0 mg/kg/injection, schedule: Q01DX001 (ip), vehicle: Klucel (hydroxypropylcellulose) (HPC)
  T/C: 94 % of control
[4]
  T/C: 93 % of control
endpoint: mean survival time, dose: 200.0 mg/kg/injection, schedule: Q01DX001 (ip), vehicle: Klucel (hydroxypropylcellulose) (HPC)
  T/C: 100 % of control
[5]
  T/C: 93 % of control
endpoint: mean survival time, dose: 400.0 mg/kg/injection, schedule: Q01DX001 (ip), vehicle: Klucel (hydroxypropylcellulose) (HPC)
  T/C: 97 % of control
[6]
  T/C: 93 % of control

## CC(=O)N(C1=CC(=O)c2ccccc2C1=O)c1ccc(Cl)cc1
endpoint: mean survival time, dose: 75.0 mg/kg/injection, schedule: Q01DX001 (ip), vehicle: carboxymethylcellulose (CMC)
  T/C: 98 % of control
endpoint: mean survival time, dose: 150.0 mg/kg/injection, schedule: Q01DX001 (ip), vehicle: carboxymethylcellulose (CMC)
  T/C: 95 % of control
endpoint: mean survival time, dose: 300.0 mg/kg/injection, schedule: Q01DX001 (ip), vehicle: carboxymethylcellulose (CMC)
  T/C: 97 % of control

## N=C1SCCS1
[7]
  T/C: 92 % of control
[8]
  T/C: 101 % of control
[9]
  T/C: 105 % of control

## CCCCOP(=O)(N1CC1CC)N1CC1CC (stereo not drawn)
endpoint: mean survival time, dose: 6.25 mg/kg/injection, schedule: Q01DX009 (ip), vehicle: other
  T/C: 99 % of control
endpoint: mean survival time, dose: 6.25 mg/kg/injection, schedule: Q04DX003 (ip), vehicle: other
  T/C: 95 % of control
endpoint: mean survival time, dose: 12.5 mg/kg/injection, schedule: Q01DX009 (ip), vehicle: other
  T/C: 95 % of control
endpoint: mean survival time, dose: 12.5 mg/kg/injection, schedule: Q04DX003 (ip), vehicle: other
  T/C: 97 % of control
endpoint: mean survival time, dose: 25.0 mg/kg/injection, schedule: Q01DX009 (ip), vehicle: other
  T/C: 92 % of control
endpoint: mean survival time, dose: 25.0 mg/kg/injection, schedule: Q04DX003 (ip), vehicle: other
  T/C: 92 % of control
endpoint: mean survival time, dose: 50.0 mg/kg/injection, schedule: Q04DX003 (ip), vehicle: other
  T/C: 94 % of control
endpoint: mean survival time, dose: 100.0 mg/kg/injection, schedule: Q04DX003 (ip), vehicle: other
  T/C: 95 % of control

## CC(=O)CP(=O)(O)O
[7]
  T/C: 97 % of control
[8]
  T/C: 94 % of control
[9]
  T/C: 94 % of control
